Results published in paper PMC3419191, “Identification of Novel Piperazinylquinoxaline Derivatives as Potent Phosphoinositide 3-Kinase (PI3K) Inhibitors” (PLoS ONE, 2012).

Columns and labels:
PC3 cells [1] = experiment: Cell cycle arrest in PC3 cells by flow cytometry; format: cell-based, human; details: 24 h
Description: Moreover, flow cytometric analysis was performed to determine whether target compounds could induce cell cycle arrest in PC3 cells. GDC0941 was used as the positive control. PC3 cells were treated with compound 41 and GDC0941 in two different concentrations (2 and 4 µM) for 24 h, the results are presented as Figure 6.
Figure 6 Cell cycle arrest test of compound 41 and GDC0941 in PC3 cells. Vertical axes stand for the counts of relative number of PC3 cells; horizontal axes stand for the relative fluorescence light intensity measured as pulse-area (FL2-A). TEXT PRINTED IN THE PICTURE: Compound 41: G1: 53.77 % (2μM); G2: 16.76 % (2μM); S: 29.48 % (2μM); G1: 54.38 % (4μM); G2: 15.87 % (4μM); S: 29.75 % (4μM) | GDC0941: G1: 63.66 % (2μM); G2: 21.86 % (2μM); S: 14.48 % (2μM); G1: 71.43 % (4μM); G2: 19.92 % (4μM); S: 8.65 % (4μM)
(§1) For flow cytometry analysis, PC3 cells were treated with DMSO, compound 41 and GDC0941 for 24 h. Cells were washed twice with PBS and fixed in 75% ethanol at −20°C. The cell pellet was resuspended in 100 µL of PBS containing […] RNase (Amerson, Solon, OH, USA), then incubated at 37°C for 0.5 h. After incubation, the cells were stained with 20 mL/L propidium iodide (PI, Sigma, St. Louis, MO, USA) at 4°C for 15 min. The fluorescence of cell was measured with FACSCalibur flow cytometer (Becton-Dickinson, Lincoln Park, NJ, USA).

PC3 cells [2] = experiment: Apoptosis assay in PC3 cells by flow cytometry (PI); format: cell-based, human; details: 24 h, control 1.71%
Description: Piperazinylquinoxaline derivative 41 was further tested for its ability to induce apoptosis in PC3 cells. […] (Fig. 5). With an apoptotic percent of 1.71% of the control, the percent of apoptotic PC3 cells induced by compound 41 and GDC0941 in 5 µM after treatment of 24 h were 4.48% and 3.12%, respectively.
Figure 5 Apoptosis induction of compound 41 and GDC0941 in PC3 cells. After treatment with 41 and GDC0941 (5 or 10 µM) for 24 h, PC3 cells were harvested and detected of apoptosis by flow cytometry using PI apoptosis detection kit. Vertical axes stand for the counts of relative number of PC3 cells; horizontal axes stand for the relative fluorescence light intensity measured as pulse-area (FL2-A). TEXT PRINTED IN THE PICTURE: Compound 41: Apo:4.48% (5μM); Apo:32.83% (10μM) | GDC0941: Apo:3.12% (5μM); Apo:5.65% (10μM)
as §1

HCT116 = experiment: MTT assay, antiproliferative activity against HCT116 cells; format: cell-based; details: Homo sapiens, HCT-116, 72 h, mean of at least two determinations
Method in brief: (§2)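 Cells grown in RPMI-1640 with 10% FBS at 37°C, 5% CO2, plated 24 h, then exposed to graded compound concentrations for 72 h. Viability read by MTT absorbance; IC50 is the concentration giving 50% absorbance inhibition versus untreated control.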

recombinant human PI3Kα = biological target: T1, recombinant human PI3Kα (Homo sapiens, UniProt P42336); experiment: Competitive fluorescence polarization (FP) assay, inhibition of PI3Kα; format: biochemical
T1 construct: purchased Echelon Biosciences (Salt Lake City, UT, USA) E-2000
Description: Selected compounds were then tested for their enzymatic inhibitory activity against PI3Kα using a competitive fluorescence polarization (FP) assay to determine the molecular target of synthesized compounds [21].
The PI3Kα inhibitory test was determined using a competitive fluorescence polarization kinase activity assay. PI3K fluorescence polarization assay kit (catalog No. K-1100) and recombinant human PI3Kα (catalog No. E-2000) were purchased from Echelon Biosciences (Salt Lake City, UT, USA). PI3K reactions were performed in 5 mM HEPES, Ph 7, 2.5 mM MgCl2, 10 mM DTT and 50 µM ATP, using diC8-phosphatidylinositol-4, 5-bisphosphate (PIP2) as the substrate, and the final reaction volumes were 10 µL. For evaluation of the PI3Kα inhibitory activity of target compounds, 50 ng enzyme and 10 µM substate were used per 10 µL reaction volume with the concentrations of inhibitors ranging from 3.2 nM to 10 µM. After incubating for 3 h at room temperature, reactions were quenched by adding chelators. A mixture of phosphoinositide binding protein was added and mixed, followed by the addition of a fluorophore-labeled phosphoinositide tracer. Samples were then mixed in 384-well black Corning nonbinding plates (Corning, NY, USA) and incubated in a dark environment for 1 h to equilibrate. Finally, polarization values were measure using red fluorophores with appropriate filters to determine the extent of enzyme activity in the reaction.

A549 = experiment: MTT assay, antiproliferative activity against A549 cells; format: cell-based; details: Homo sapiens, 72 h, mean of at least two determinations
Method in brief: as §2

PC3 = experiment: MTT assay, antiproliferative activity against PC3 cells; format: cell-based; details: Homo sapiens, PC-3, 72 h, mean of at least two determinations
Method in brief: as §2

T1 sequence (P42336 whole entry): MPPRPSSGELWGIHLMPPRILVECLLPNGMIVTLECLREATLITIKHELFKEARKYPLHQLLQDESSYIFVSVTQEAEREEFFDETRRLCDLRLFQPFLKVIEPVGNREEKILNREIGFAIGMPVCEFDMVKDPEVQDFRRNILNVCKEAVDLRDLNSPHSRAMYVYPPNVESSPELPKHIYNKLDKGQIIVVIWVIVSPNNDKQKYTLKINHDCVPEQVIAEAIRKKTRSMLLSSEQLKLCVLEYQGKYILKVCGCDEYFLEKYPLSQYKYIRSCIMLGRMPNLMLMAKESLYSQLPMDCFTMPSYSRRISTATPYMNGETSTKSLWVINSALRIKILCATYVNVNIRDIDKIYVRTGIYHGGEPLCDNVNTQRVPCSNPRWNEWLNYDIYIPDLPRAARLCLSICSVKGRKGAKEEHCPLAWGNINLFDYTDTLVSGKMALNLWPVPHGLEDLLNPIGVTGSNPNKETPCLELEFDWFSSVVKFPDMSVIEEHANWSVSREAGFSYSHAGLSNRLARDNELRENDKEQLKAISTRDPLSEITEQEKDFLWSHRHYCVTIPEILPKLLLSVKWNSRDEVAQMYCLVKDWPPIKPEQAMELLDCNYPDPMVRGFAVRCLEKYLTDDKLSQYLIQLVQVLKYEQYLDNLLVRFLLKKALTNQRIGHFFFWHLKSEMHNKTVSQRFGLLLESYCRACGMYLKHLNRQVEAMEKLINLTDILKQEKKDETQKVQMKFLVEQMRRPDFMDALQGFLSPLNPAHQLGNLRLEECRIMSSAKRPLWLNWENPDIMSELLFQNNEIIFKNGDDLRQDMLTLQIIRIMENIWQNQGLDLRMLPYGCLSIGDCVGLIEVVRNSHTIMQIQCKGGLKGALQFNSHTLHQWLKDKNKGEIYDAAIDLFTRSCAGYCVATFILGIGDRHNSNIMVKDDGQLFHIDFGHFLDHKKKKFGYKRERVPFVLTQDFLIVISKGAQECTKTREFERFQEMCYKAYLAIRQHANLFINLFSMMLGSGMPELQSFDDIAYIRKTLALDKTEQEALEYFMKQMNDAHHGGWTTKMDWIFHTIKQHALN
T1 sequence (P27986 whole entry partner): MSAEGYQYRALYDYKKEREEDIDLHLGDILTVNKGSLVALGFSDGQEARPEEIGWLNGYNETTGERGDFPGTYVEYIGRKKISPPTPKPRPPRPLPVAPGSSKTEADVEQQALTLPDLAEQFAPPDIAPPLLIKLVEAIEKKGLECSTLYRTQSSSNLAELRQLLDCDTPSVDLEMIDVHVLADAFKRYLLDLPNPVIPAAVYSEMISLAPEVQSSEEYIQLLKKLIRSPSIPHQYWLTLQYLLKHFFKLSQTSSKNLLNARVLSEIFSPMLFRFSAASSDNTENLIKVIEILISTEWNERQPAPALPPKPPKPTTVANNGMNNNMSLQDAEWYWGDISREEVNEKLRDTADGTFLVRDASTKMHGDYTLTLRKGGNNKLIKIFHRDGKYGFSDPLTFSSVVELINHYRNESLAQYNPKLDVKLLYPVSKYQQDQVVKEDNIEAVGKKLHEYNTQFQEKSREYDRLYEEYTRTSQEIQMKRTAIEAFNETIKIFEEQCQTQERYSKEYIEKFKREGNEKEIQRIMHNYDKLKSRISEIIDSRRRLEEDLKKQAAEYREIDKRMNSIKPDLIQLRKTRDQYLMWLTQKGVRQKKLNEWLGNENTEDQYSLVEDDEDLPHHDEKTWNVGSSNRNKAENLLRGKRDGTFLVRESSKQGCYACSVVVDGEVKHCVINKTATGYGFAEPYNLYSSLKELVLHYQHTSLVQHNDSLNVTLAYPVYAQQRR

SMILES: COc1ccc(S(=O)(=O)c2nc3ccccc3nc2N2CCN(S(C)(=O)=O)CC2)cc1 [Compound 41, 2-(4-(Methylsulfonyl)piperazin-1-yl)-3-(4-methoxyphenylfsulfonyl)quinoxaline]
- percent of cells in G1 (PC3 cells [1]; 2 µM): 53.77%
- percent of cells in G2 (PC3 cells [1]; 2 µM): 16.76%
- percent of cells in S (PC3 cells [1]; 2 µM): 29.48%
- percent of cells in G1 (PC3 cells [1]; 4 µM): 54.38%
- percent of cells in G2 (PC3 cells [1]; 4 µM): 15.87%
- percent of cells in S (PC3 cells [1]; 4 µM): 29.75%
- cell cycle arrest (PC3 cells [1]; 2 and 4 µM): showed similar trend while the percent of cell in G1 phase was smaller
- percent of apoptotic PC3 cells (PC3 cells [2]; 5 µM): 4.48%
- percent of apoptotic PC3 cells (PC3 cells [2]; 10 µM): 32.83%
- IC50 (HCT116): 550 nM
- Binding efficiency index (BEI) (recombinant human PI3Kα; BEI = pIC50 (M)/MW (kDa), PI3Kα): 16.5
- IC50 (recombinant human PI3Kα; FP assay, 50 µM ATP, mean of at least two determinations): 24 nM
- IC50 (A549): 1320 nM
- melting point: 177 to 179 °C
- IC50 (PC3): 2210 nM
